# pEC50: −log10 of the molar value.
# Assays:
# UBE2M mutant KBM7 cells = assay: cells; type: cell-based; details: for pEC50: Homo sapiens, KBM-7, read-out: KBM7_UBE2M_mut
# Description: (§1) KBM7 cells with the specified genetic backgrounds were grown in IMDM supplemented with 10% FBS and 1% penicillin/streptomycin (pen/strep). AsPC1, HCT116, NCI-H446 and 293T cells were grown in DMEM 10% FBS and 1% pen/strep. MV4; 11, Jurkat and Be (2) C cells were grown in RPMI 10% FBS 1% pen/strep. KBM7, AsPC1 and HCT116 cells expressing Cas9 were generated using the plasmid Lenti_Cas9_Blasti (Addgene #52962). The lentiviral plasmid lentiGuide-Puro (Addgene #52963) was used to express sgRNAs against the genes UBE2M (in KBM7-Cas9, AsPC1-Cas9 and HCT116-Cas9 cells), UBE2G1 (in KBM7-Cas9 cells) and […] (in KBM7-Cas9 cells). The lentiviral plasmid lentiGuide-Puro-IRES-mCherry (modified from Addgene #52963) was used to express sgRNAs against CUL4A (in KBM7-Cas9 cells). The lentiviral plasmid pLenti-PGK-Hygro-DEST-UBE2M was generated by Gateway cloning (empty destination vector Addgene #19066), and used to generate UBE2M^resc KBM7 cells. […]
# (§2) Following this observation, it was rationalized that novel small molecule degraders can be identified in an unbiased manner, simply by searching for compounds that lose activity in the absence of UBE2M. 2000 small molecules, mostly of unknown function/target, were tested for their antiproliferative effects in human leukemia cells (KBM7). These cells were either transduced with a control sgRNA (KBM7WT), or with an sgRNA targeting UBE2M, leading to a hypomorph (deletion of six amino acids) with a functional impairment (UBE2Mmut).
# (§3) Finally, a total of structurally similar analogs was tested to unravel structure-activity relationship of the identified molecules. To that end, their anti-cancer activity was assayed in WT cells, as well as KBM7 cells deficient in genes identified in the genome-wide CRISPR screens (UBE2M, CUL4B, UBE2G1). Moreover, the compounds were also tested in AsPC1 pancreatic cancer cells (WT or UBE2Mmut), MV4; 11 and Jurkat leukemia cells, Be (2) C neuroblastoma cells, and NCI-H446 lung cancer cells (Table 3 at the end of this document)
# (§4) KBM7^WT, mutant KBM7 clones (UBE2M^mut, UBE2M^resc, UBE2G1^mut CUL4A^mut, CUL4B^mut), and 3-day doxycycline pretreated KBM7^iCas9_sgDDB1 cells were seeded at a cell density of 50,000 cells/mL in 96-well plates with DMSO or drug, in triplicates. Drugs used: IC020772.1/IC020772.1X, IC021313.2/IC021313.2X, T6938051/T6938051X or THZ531. Cells were treated for 3 days, after which cell viability was assessed according to manufacturer's protocol (CellTiter Glo, Promega G7570). Survival curves and EC50 values were calculated by best-fit analysis of the log 10 drug concentration to fold change of drug-treated cells over DMSO-treated cells. All survival assays included technical triplicates per sample, per experiment.
# [1] = tested on: T1, cyclin K (CCNK) (Homo sapiens); assay: CCNK destabilization/degradation (expression proteomics and Western blot); type: cell-based; details: wild-type KBM7 cells
# T1 construct: endogenous in cells; host or cells: KBM7 cells (WT and UBE2M/CUL4B/UBE2G1 mutant clones)
# T1 sequence (O75909 whole entry partner): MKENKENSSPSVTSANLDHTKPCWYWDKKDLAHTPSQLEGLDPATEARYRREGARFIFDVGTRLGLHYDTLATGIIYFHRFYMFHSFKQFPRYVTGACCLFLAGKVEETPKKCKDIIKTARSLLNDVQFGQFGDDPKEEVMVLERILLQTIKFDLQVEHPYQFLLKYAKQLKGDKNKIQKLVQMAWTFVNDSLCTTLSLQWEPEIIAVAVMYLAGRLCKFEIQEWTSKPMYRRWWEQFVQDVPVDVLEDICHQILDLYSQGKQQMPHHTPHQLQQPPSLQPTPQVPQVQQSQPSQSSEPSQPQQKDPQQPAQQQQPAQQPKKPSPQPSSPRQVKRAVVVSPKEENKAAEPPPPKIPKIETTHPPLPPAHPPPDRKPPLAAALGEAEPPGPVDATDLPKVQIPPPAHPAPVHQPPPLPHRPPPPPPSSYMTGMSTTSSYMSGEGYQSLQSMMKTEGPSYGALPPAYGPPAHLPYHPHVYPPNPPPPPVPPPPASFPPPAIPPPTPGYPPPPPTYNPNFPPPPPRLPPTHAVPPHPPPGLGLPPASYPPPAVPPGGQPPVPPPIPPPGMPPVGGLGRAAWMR
# T1 sequence (Q9NYV4 whole entry, further chain): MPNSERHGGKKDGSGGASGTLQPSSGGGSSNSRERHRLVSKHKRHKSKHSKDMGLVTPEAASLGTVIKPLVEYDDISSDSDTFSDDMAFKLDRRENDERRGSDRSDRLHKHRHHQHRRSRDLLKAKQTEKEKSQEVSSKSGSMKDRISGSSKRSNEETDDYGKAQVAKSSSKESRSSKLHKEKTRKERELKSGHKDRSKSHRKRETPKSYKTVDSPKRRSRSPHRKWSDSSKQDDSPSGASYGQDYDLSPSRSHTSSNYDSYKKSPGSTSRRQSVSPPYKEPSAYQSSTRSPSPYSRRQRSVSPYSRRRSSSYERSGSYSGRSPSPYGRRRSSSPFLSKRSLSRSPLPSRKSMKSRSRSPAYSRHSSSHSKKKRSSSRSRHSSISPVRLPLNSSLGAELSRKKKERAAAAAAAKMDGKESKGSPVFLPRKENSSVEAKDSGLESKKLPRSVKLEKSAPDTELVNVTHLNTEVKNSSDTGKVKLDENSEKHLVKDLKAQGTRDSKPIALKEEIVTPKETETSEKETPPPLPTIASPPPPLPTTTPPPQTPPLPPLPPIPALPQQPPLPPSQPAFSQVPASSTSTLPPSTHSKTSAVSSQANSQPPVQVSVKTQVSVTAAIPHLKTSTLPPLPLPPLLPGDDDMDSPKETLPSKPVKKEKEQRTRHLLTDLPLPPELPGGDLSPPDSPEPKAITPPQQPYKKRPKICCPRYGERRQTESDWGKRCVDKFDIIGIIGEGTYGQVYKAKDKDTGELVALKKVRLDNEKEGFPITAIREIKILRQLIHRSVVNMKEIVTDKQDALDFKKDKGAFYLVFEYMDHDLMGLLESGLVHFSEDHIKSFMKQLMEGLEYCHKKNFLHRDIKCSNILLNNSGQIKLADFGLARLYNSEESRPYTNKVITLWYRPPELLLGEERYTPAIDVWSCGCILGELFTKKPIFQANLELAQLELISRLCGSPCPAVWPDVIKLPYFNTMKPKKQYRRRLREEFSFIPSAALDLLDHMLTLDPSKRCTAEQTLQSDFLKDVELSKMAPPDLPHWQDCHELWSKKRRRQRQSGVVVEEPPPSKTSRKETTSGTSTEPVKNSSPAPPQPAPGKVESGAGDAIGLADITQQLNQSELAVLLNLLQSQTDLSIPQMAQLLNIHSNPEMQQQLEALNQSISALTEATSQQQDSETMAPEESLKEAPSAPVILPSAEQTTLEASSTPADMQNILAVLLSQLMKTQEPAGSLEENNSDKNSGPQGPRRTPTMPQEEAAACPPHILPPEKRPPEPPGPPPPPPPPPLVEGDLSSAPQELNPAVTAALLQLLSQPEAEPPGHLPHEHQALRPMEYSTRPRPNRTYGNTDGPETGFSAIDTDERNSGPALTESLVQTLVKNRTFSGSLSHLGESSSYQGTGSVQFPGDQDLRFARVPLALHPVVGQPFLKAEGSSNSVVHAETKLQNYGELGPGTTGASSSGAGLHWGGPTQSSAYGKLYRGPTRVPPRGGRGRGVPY
# T1 sequence (Q16531 2-1140 limits assumed, further chain): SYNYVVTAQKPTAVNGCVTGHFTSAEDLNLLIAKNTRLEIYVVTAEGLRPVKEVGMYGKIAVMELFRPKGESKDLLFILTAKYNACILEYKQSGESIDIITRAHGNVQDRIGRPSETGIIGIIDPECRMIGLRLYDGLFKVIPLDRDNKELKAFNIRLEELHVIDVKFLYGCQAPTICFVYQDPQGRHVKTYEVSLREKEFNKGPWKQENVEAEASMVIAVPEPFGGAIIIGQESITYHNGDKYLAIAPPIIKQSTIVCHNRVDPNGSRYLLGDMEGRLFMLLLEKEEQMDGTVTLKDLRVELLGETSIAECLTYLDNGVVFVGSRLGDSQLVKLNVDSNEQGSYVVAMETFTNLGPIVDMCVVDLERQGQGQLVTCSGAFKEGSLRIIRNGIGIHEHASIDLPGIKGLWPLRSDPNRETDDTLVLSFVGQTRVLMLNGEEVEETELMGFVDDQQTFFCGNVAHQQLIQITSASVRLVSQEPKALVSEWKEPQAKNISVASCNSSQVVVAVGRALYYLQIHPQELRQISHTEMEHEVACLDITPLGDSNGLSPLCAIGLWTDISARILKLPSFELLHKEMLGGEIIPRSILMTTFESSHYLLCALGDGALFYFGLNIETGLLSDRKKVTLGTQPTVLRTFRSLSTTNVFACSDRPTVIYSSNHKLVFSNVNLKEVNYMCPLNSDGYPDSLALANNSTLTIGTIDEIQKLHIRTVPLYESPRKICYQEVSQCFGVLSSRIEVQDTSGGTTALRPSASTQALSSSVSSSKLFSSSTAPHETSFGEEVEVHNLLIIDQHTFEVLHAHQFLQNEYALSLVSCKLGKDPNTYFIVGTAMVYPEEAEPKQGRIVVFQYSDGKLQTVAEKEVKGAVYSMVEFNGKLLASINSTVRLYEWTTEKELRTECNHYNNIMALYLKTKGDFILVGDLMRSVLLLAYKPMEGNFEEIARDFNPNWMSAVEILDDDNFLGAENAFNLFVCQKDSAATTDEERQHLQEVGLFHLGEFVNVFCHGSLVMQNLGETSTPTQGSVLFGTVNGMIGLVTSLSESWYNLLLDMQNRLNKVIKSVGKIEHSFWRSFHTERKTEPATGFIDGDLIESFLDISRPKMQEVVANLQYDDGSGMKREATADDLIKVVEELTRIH
# T1 sequence (Q13620 whole entry partner): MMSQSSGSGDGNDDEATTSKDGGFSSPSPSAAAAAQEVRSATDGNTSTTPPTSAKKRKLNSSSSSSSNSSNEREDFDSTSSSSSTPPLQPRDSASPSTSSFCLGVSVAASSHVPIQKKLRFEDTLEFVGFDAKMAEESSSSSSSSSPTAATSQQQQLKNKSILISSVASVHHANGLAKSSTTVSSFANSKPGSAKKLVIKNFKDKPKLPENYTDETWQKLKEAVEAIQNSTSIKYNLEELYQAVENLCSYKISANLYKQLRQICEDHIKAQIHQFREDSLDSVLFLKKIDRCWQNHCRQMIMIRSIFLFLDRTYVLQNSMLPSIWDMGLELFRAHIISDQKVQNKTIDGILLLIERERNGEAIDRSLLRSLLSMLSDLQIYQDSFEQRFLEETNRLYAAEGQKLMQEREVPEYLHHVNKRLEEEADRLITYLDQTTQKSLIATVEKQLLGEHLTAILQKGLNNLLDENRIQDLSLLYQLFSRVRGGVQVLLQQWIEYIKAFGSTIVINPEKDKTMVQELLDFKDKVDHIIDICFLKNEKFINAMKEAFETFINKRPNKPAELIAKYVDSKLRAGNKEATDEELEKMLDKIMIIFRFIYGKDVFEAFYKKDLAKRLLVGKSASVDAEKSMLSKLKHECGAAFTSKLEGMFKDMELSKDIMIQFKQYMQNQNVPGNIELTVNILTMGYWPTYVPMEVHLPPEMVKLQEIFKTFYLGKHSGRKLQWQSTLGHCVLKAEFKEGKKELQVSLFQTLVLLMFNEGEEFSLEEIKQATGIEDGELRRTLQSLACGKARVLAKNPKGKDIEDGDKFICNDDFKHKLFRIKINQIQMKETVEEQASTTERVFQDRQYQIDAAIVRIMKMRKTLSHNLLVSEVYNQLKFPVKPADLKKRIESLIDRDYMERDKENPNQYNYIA
# T1 sequence (P62877 whole entry partner): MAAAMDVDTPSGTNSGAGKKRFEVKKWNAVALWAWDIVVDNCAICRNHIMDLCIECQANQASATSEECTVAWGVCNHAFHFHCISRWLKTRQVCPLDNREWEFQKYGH
# Description: (§5) The hypomorphic phenotype of the mutated UBE2M allele in KBM7 cells (KBM7 UBE2M^mut cells) was assessed. In this regard, CRISPR/Cas9-induced mutation of UBE2M inactivated CRL activity including CRL4^CRBN and CRL2^VHL. […] Additionally, CCNK destabilization by all three compounds was validated via time-resolved immunoblots wherein CCNK degradation was evident after two hours (FIG. 19c).
# (§6) Subsequently, a total of 53 structurally related analogue compounds in dose-ranging viability assays in KBM7 wildtype- and UBE2M^mut cells was tested to develop a structure-activity relationship for the assayed compounds. This informed on sites amenable for derivatization of analogs (FIG. 20a), and also to the identification of structurally similar small molecules with no measurable activity that are thus suited negative controls. […] CRL activity-dependent degradation of CCNK could be rescued by pharmacologic NAE inhibition and by blocking the ubiquitin activating enzyme UBA1, particularly by pretreating the cells with 1 μM carfilzomib (Selleckchem, S2853), 1 μM MLN4924 (Selleckchem, S7109), 10 μM TAK-243 (MedChemExpress, HY-100487) or 1 μM THZ531 (MedChemExpress HY-103618) (FIG. 19d). Furthermore, treatment with the selective covalent CDK12/13 inhibitor THZ531, which binds to the ATP binding pocket of CDK12/13, rescued CCNK degradation (FIG. 19d) indicating the role of the active site of CDK12/13 for CRL activity-dependent CCNK degradation by the identified compounds (FIG. 19d).
# (§7) PBS-washed cell pellets were lysed in 50 mM Tris pH 7.9, 8M Urea and 1% CHAPS and incubated with shaking at 4° C. for at least 30 min. 20 μg of supernatants were run and transferred for detection. Antibodies used: CUL1 (Santa Cruz Biotechnology, sc-1276), CUL2 (Sigma-Aldrich, SAB2501565-100), CUL3 (Cell Signaling Technology, 2759), CUL4A (Cell Signaling Technology, 2699S), CUL4B (Proteintech, 12916-1-AP), CUL5 (Santa Cruz Biotechnology, sc-373822), UBE2M (Santa Cruz Biotechnology, sc-390064), DDB1 (Cell Signaling Technology, 5428S), CCNK (Bethyl, A301-939A), CDK12 (Cell Signaling Technology, 11973S), CDK13 (Bethyl, A301-458A), RBM39 (1:500, Santa Cruz Biotechnology sc-376531), V5 (Cell Signaling Technology, 13202), Ubiquityl-Histone H2A (K119) (Cell Signaling, 8240-20). ACTIN (Sigma-Aldrich, A5441), VINCUL1N (Santa Cruz Biotechnology, sc-25336). Secondary antibodies anti-mouse/rabbit/goat (Jackson ImmunoResearch 115-035-003, 111-035-003 and 705-035-003).
# (§8) Comparison of overall proteome-wide changes in KBM7 cells treated with IC020772.1 (2.5 μM), IC021313.2 (7 μM) or T6938051 (3.5 μM) for 5 h and 12h, using quantitative proteomics based on isobaric tagging.
# KBM7 WT cells = assay: cells; type: cell-based; details: for effect on KBM7 cells in dose-ranging viability assays: WT KBM7, 3-day treatment; for pEC50: Homo sapiens, KBM-7, read-out: KBM7_WT
# Description: as §1, §3, §4
# KBM7 CUL4Bmut cells = assay: cells; type: cell-based; details: Homo sapiens, KBM-7, read-out: KBM7_CUL4B_mut
# Description: as §1, §3, §4
# KBM7 UBE2G1mut cells = assay: cells; type: cell-based; details: Homo sapiens, KBM-7, read-out: KBM7_UBE2G1_mut
# Description: as §1, §3, §4
# [2] = tested on: KBM7 WT and UBE2Mmut cells; assay: Primary phenotypic screen, differential viability KBM7 WT vs UBE2M mutant; type: cell-based, human; details: 10 μM and 500 nM, 3 days
# Description: as §2
# KBM7^WT and UBE2M^mut cells were treated with a compound library (2000 cytotoxic diverse small-molecules, mostly of unknown function/target). Briefly, the screening was divided in three parts 1) primary screening, 2) follow up and 3) validation. During the primary screening, cells were treated with 10 μM and 500 nM of every compound. […] After 3 days of treatment, cell viability was measured (CellTiter Glo, Promega). The screen was perform in 384-well plates (Corning 3712) and the reagent/compound dispensing system used was: Echo 520 Liquid Handler, Multidrop™ Combi Reagent Dispenser. Control compounds were included in several wells, in all the plates. Method for validation of IC021313.2, IC020822.1, IC020772.1, T6938051 as described above in (i).
# cyclin K (CCNK) = target: T2, cyclin K (CCNK) (Homo sapiens, UniProt Q16531+Q9NYV4); assay: CCNK destabilization/degradation (expression proteomics and Western blot); type: cell-based; details: for rescue of drug-induced CCNK degradation by pretreatment: 30 min pretreatment before IC020772.1 (2.5 μM, 5h), 1 μM carfilzomib, 1 μM MLN4924, 10 μM TAK-243, 1 μM THZ531
# T2 construct: endogenous in cells; host or cells: KBM7 cells (WT and UBE2M/CUL4B/UBE2G1 mutant clones)
# T2 sequence (O75909 whole entry partner): as the sequence (O75909 whole entry partner) above
# T2 sequence (Q9NYV4 whole entry): as the sequence (Q9NYV4 whole entry, further chain) above
# T2 sequence (Q16531 2-1140 limits assumed): as the sequence (Q16531 2-1140 limits assumed, further chain) above
# T2 sequence (Q13620 whole entry partner): as the sequence (Q13620 whole entry partner) above
# T2 sequence (P62877 whole entry partner): as the sequence (P62877 whole entry partner) above
# Description: as §5, §6, §7, §8
# DCAF15 = target: T3, DCAF15 (Homo sapiens, UniProt Q66K64); assay: DCAF15 stabilization, live-cell HiBit/LgBit bioluminescence screen; type: cell-based; details: 10 μM, 293T cells expressing HiBit-DCAF15
# T3 construct: expressed in transfected cells; host or cells: 293T cells, DCAF15 knocked out, additionally transduced with LgBit
# T3 sequence (Q66K64 whole entry): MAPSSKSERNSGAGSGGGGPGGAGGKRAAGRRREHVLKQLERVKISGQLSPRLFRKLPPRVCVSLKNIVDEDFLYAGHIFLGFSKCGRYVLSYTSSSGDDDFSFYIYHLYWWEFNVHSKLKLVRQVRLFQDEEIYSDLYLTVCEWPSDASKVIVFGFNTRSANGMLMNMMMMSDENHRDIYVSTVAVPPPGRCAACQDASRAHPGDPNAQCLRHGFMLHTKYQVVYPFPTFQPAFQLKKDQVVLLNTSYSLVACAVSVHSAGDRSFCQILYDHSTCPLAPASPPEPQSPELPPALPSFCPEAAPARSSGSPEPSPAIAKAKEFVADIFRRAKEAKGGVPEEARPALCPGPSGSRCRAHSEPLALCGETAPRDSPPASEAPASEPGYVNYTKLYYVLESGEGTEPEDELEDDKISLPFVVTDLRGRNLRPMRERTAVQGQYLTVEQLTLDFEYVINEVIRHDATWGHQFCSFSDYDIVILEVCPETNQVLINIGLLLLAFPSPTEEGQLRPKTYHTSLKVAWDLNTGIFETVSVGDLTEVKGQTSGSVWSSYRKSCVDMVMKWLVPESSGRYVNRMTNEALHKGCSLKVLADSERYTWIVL
# Excerpt: Subsequently, in this context, the E3 ligase substrate receptor (SR) stabilization approach was employed in order to identify novel chemical matter that can bind and chemically re-program the substrate receptor DCAF15. To be able to screen a collection of around 8000 small-molecules, a cellular system was developed that enabled monitoring of DCAF15 levels in live cells in multi-well format. To that end, DCAF15 was first knocked out in 293T cells via CRISPR/Cas9 technology. Then, DCAF15 was stably expressed as a HiBit® fusion protein in these cells. After further transducing these cells with LgBit, this allowed live-cell tracing of DCAF15 levels in 384 well format by measuring bioluminescence (FIG. 13).
# In brief, cells were seeded at a concentration of 250′000 cells/ml in DMEM+10% FCS+25 mM Hepes. The luciferase substrate Endurazine was added at concentrations recommended by the manufacturer. Small-molecules were added at a concentration of 10 μM, and their effect on DCAF15 levels was assayed by continuous bioluminescent imaging (measurements were taken every 120 minutes). In total, 8000 compounds were tested.
# The known DCAF15 molecular glue indisulam was used as a positive control. In brief, indisulam is known to act as a DCAF15-dependent molecular glue that binds DCAF15 and induced proximity between DCAF15 and RBM39, leading to the degradation of the latter. […]
compound,measurement,setting,value
"Cc1ncsc1-c1ccc([C@H](C)NC(=O)[C@@H]2C[C@@H](O)CN2C(=O)[C@@H](NC(=O)COCCCOCCNC(=O)C[C@@H]2N=C(c3ccc(Cl)cc3)c3c(sc(C)c3C)-n3c(C)nnc32)C(C)(C)C)cc1 [ARV-771, reference compound]",anti-proliferative effect upon mutation of UBE2M,UBE2M mutant KBM7 cells; KBM7 UBE2M mutant vs WT,efficacy is significantly abrogated
Cc1ccc(NC(=O)C2CSCN2C(=O)c2ccc(C)o2)cc1 (stereo not shown) [Compound T6938051X],CCNK destabilization,[1],failed to induce pronounced CCNK destabilization
same,effect on KBM7 cells in dose-ranging viability assays,KBM7 WT cells,did not affect KBM7 cells
"O=C(CSc1nc2ccccc2[nH]1)Nc1ccc(Cl)cn1 [Compound Z54609541, 2-((1H-benzo[d]imidazol-2-yl)thio)-N-(5-chloropyridin-2-yl) acetamide]",pEC50,UBE2M mutant KBM7 cells,4.61
same,pEC50,KBM7 CUL4Bmut cells,4.92
same,pEC50,KBM7 WT cells,5.62
same,pEC50,KBM7 UBE2G1mut cells,5.12
"O=C(CSc1nc2ccccc2[nH]1)Nc1ccc(Br)cn1 [Compound Z201181756, 2-((1H-benzo[d]imidazol-2-yl)thio)-N-(5-bromopyridin-2-yl) acetamide]",pEC50,UBE2M mutant KBM7 cells,4.46
same,pEC50,KBM7 CUL4Bmut cells,4.90
same,pEC50,KBM7 WT cells,5.85
same,pEC50,KBM7 UBE2G1mut cells,5.21
CCCn1c2ccccc2c2nnc(SCC(=O)Nc3ccc(Cl)cn3)nc21 [IC020772.1X],CCNK destabilization,[1],failed to induce pronounced CCNK destabilization
same,effect on KBM7 cells in dose-ranging viability assays,KBM7 WT cells,did not affect KBM7 cells
O=C(CSc1nc2ccccc2[nH]1)Nc1ccc(Br)cn1 [IC020822.1],hit in differential viability screen,[2],stood out in terms of fold-change significance
O=C(CSc1nc2ccccc2[nH]1)Nc1ccccn1 [IC021313.2X],CCNK destabilization,[1],failed to induce pronounced CCNK destabilization
same,effect on KBM7 cells in dose-ranging viability assays,KBM7 WT cells,did not affect KBM7 cells
"NS(=O)(=O)OC[C@@H]1C[C@@H](n2ccc3c(N[C@H]4CCc5ccccc54)ncnc32)C[C@@H]1O [MLN4924, reference compound]",rescue of drug-induced CCNK degradation by pretreatment,cyclin K (CCNK),rescued
"NS(=O)(=O)OC[C@H]1C[C@@H](Nc2ccnc3cc(-c4cccc(SC(F)(F)F)c4)nn23)[C@H](O)[C@@H]1O [TAK-243, reference compound]",rescue of drug-induced CCNK degradation by pretreatment,cyclin K (CCNK),rescued
"CN(C)C/C=C/C(=O)Nc1ccc(C(=O)N2CCC[C@@H](Nc3ncc(Cl)c(-c4c[nH]c5ccccc45)n3)C2)cc1 [THZ531, reference compound]",rescue of drug-induced CCNK degradation by pretreatment,cyclin K (CCNK),rescued
same,"effect on CCNK upon inactivation of DDB1, UBE2G1 and UBE2M",cyclin K (CCNK); CRISPR-inactivated KBM7 cells,not affected
"CC(C)C[C@H](NC(=O)[C@H](CCc1ccccc1)NC(=O)CN1CCOCC1)C(=O)N[C@@H](Cc1ccccc1)C(=O)N[C@@H](CC(C)C)C(=O)[C@@]1(C)CO1 [carfilzomib, reference compound]",rescue of drug-induced CCNK degradation by pretreatment,cyclin K (CCNK),rescued
"NS(=O)(=O)c1ccc(S(=O)(=O)Nc2cccc3c(Cl)c[nH]c23)cc1 [indisulam, reference compound]",DCAF15 stabilization (relative luciferase signal over time),DCAF15,pronounced stabilization of DCAF15

# — US12410152B2, “Oxazole and thioazole-type cullin ring ubiquitin ligase compounds and uses thereof” (Proxygen GmbH, priority 2019, dated 2025)
